According to PubChem BioAssay AID248 (DTP/NCI, 2004):
Where “and” joins values, the source holds several entries; their conditions need not be identical. Identical values can stand only once. Inconclusive results and toxic doses are left out. Rule as the data show it: active = T/C of 150% or more; inactive = T/C below 125%.

System: L1210 leukemia ip in BDF1 mice, survival T/C
Experiment: NCI In Vivo Anticancer Drug Screen. Data for tumor model L1210 Leukemia (intraperitoneal) in B6D2F1 (BDF1) mice
Conditions: endpoint: mean survival time, higher = longer survival
Procedure, shortened: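 Antitumor effect is assessed in tumor-bearing animals. Survival in the compound arm is compared with a vehicle-dosed control arm and expressed as their quotient.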

[1] = dose: 50.0 mg/kg/injection, schedule: Q01DX001 (ip), vehicle: saline
[2] = dose: 50.0 mg/kg/injection, schedule: Q04DX003 (ip), vehicle: Klucel (hydroxypropylcellulose) (HPC)
[3] = dose: 100.0 mg/kg/injection, schedule: Q04DX002 (ip), vehicle: Klucel (hydroxypropylcellulose) (HPC)
[4] = dose: 100.0 mg/kg/injection, schedule: Q04DX003 (ip), vehicle: Klucel (hydroxypropylcellulose) (HPC)
[5] = dose: 200.0 mg/kg/injection, schedule: Q04DX002 (ip), vehicle: Klucel (hydroxypropylcellulose) (HPC)
[6] = dose: 200.0 mg/kg/injection, schedule: Q04DX003 (ip), vehicle: Klucel (hydroxypropylcellulose) (HPC)
[7] = dose: 400.0 mg/kg/injection, schedule: Q04DX002 (ip), vehicle: Klucel (hydroxypropylcellulose) (HPC)
[8] = dose: 400.0 mg/kg/injection, schedule: Q04DX003 (ip), vehicle: Klucel (hydroxypropylcellulose) (HPC)
[9] = dose: 100.0 mg/kg/injection, schedule: Q01DX001 (ip), vehicle: saline
[10] = dose: 200.0 mg/kg/injection, schedule: Q01DX001 (ip), vehicle: saline
[11] = dose: 400.0 mg/kg/injection, schedule: Q01DX001 (ip), vehicle: saline

Measured: T/C

CC(=O)c1ccc(NCc2cnc3nc(N)nc(N)c3n2)cc1
inactive: dose: 20.0 mg/kg/injection, schedule: Q01DX009 (ip), vehicle: Klucel (hydroxypropylcellulose) (HPC) 102 % of control | dose: 40.0 mg/kg/injection, schedule: Q01DX009 (ip), vehicle: Klucel (hydroxypropylcellulose) (HPC) 105 % of control | dose: 80.0 mg/kg/injection, schedule: Q01DX009 (ip), vehicle: Klucel (hydroxypropylcellulose) (HPC) 105 % of control

CC(=N/NC(=O)c1ccc[n+](C)c1)/C(C)=N\NC(=O)c1ccc[n+](C)c1
inactive: dose: 25.0 mg/kg/injection, schedule: Q01DX001 (ip), vehicle: saline 95 % of control | [1] 95 % of control

CC(=O)OC1C(OCc2ccccc2)OC(COCc2ccccc2)C(OC2OC(COCc3ccccc3)C(OCc3ccccc3)C(OCc3ccccc3)C2OCc2ccccc2)C1OCc1ccccc1 (stereo unspecified)
inactive: dose: 5.31 mg/kg/injection, schedule: Q01DX009 (ip), vehicle: Klucel (hydroxypropylcellulose) (HPC) 97 % of control | dose: 10.62 mg/kg/injection, schedule: Q01DX009 (ip), vehicle: Klucel (hydroxypropylcellulose) (HPC) 94 % of control | dose: 12.5 mg/kg/injection, schedule: Q04DX003 (ip), vehicle: Klucel (hydroxypropylcellulose) (HPC) 87 % of control and 92 % of control | dose: 21.25 mg/kg/injection, schedule: Q01DX009 (ip), vehicle: Klucel (hydroxypropylcellulose) (HPC) 94 % of control | dose: 25.0 mg/kg/injection, schedule: Q04DX003 (ip), vehicle: Klucel (hydroxypropylcellulose) (HPC) 87 % of control | [2] 87 % of control and 88 % of control | dose: 75.0 mg/kg/injection, schedule: Q04DX003 (ip), vehicle: other 91 % of control | dose: 85.0 mg/kg/injection, schedule: Q01DX009 (ip), vehicle: Klucel (hydroxypropylcellulose) (HPC) 86 % of control | dose: 115.0 mg/kg/injection, schedule: Q04DX003 (ip), vehicle: other 91 % of control | dose: 170.0 mg/kg/injection, schedule: Q04DX003 (ip), vehicle: other 93 % of control

CCCCCCSc1nccnc1C
inactive: dose: 25.0 mg/kg/injection, schedule: Q01DX009 (ip), vehicle: Klucel (hydroxypropylcellulose) (HPC) 100 % of control | dose: 50.0 mg/kg/injection, schedule: Q01DX001 (ip), vehicle: Klucel (hydroxypropylcellulose) (HPC) 92 % of control | dose: 50.0 mg/kg/injection, schedule: Q01DX009 (ip), vehicle: Klucel (hydroxypropylcellulose) (HPC) 92 % of control and 96 % of control | dose: 50.0 mg/kg/injection, schedule: Q04DX002 (ip), vehicle: Klucel (hydroxypropylcellulose) (HPC) 92 % of control | [2] 93 % of control | dose: 100.0 mg/kg/injection, schedule: Q01DX001 (ip), vehicle: Klucel (hydroxypropylcellulose) (HPC) 95 % of control | dose: 100.0 mg/kg/injection, schedule: Q01DX009 (ip), vehicle: Klucel (hydroxypropylcellulose) (HPC) 123 % of control and 91 % of control | [3] 102 % of control | [4] 95 % of control | dose: 200.0 mg/kg/injection, schedule: Q01DX001 (ip), vehicle: Klucel (hydroxypropylcellulose) (HPC) 98 % of control | dose: 200.0 mg/kg/injection, schedule: Q01DX009 (ip), vehicle: Klucel (hydroxypropylcellulose) (HPC) 100 % of control | [5] 87 % of control | [6] 92 % of control | dose: 400.0 mg/kg/injection, schedule: Q01DX001 (ip), vehicle: Klucel (hydroxypropylcellulose) (HPC) 98 % of control | [7] 94 % of control | [8] 87 % of control

Cc1cc([N+](=O)[O-])cc(C)c1C
inactive: [4] 98 % of control | [6] 102 % of control | [8] 107 % of control

[N-]=[N+]=NCC1OC(n2cnc3c(N)ncnc32)C(O)C1O (stereo unspecified)
inactive: [9] 95 % of control | [10] 103 % of control | [11] 103 % of control

CCOC(=O)C(CCC(c1ccc(OC)cc1)c1ccc(OC)cc1)C(=O)OCC
inactive: [9] 98 % of control | [10] 93 % of control | [11] 94 % of control

Oc1ccc(/C=N/Nc2nnc(N/N=C/c3ccc(O)cc3O)c3ccccc23)c(O)c1
inactive: dose: 2.5 mg/kg/injection, schedule: Q01DX015 (ip), vehicle: carboxymethylcellulose (CMC) 97 % of control | dose: 5.0 mg/kg/injection, schedule: Q01DX009 (ip), vehicle: saline 104 % of control | dose: 5.0 mg/kg/injection, schedule: Q01DX015 (ip), vehicle: carboxymethylcellulose (CMC) 98 % of control | dose: 10.0 mg/kg/injection, schedule: Q01DX009 (ip), vehicle: saline 109 % of control | dose: 10.0 mg/kg/injection, schedule: Q01DX015 (ip), vehicle: carboxymethylcellulose (CMC) 110 % of control | dose: 19.0 mg/kg/injection, schedule: Q01DX015 (ip), vehicle: carboxymethylcellulose (CMC) 120 % of control | dose: 20.0 mg/kg/injection, schedule: Q01DX009 (ip), vehicle: saline 106 % of control | dose: 32.0 mg/kg/injection, schedule: Q01DX015 (ip), vehicle: carboxymethylcellulose (CMC) 114 % of control | [1] 98 % of control | dose: 100.0 mg/kg/injection, schedule: Q01DX001 (ip), vehicle: carboxymethylcellulose (CMC) 111 % of control | [9] 97 % of control | dose: 200.0 mg/kg/injection, schedule: Q01DX001 (ip), vehicle: carboxymethylcellulose (CMC) 121 % of control | [10] 106 % of control | dose: 600.0 mg/kg/injection, schedule: Q01DX001 (ip), vehicle: carboxymethylcellulose (CMC) 117 % of control

COc1ccc(C(C)(C)CC(C)(C)C)cc1
inactive: dose: 75.0 mg/kg/injection, schedule: Q01DX009 (ip), vehicle: Klucel (hydroxypropylcellulose) (HPC) 111 % of control | [3] 108 % of control | dose: 150.0 mg/kg/injection, schedule: Q01DX009 (ip), vehicle: Klucel (hydroxypropylcellulose) (HPC) 100 % of control | [5] 118 % of control | dose: 300.0 mg/kg/injection, schedule: Q01DX009 (ip), vehicle: Klucel (hydroxypropylcellulose) (HPC) 91 % of control | [7] 101 % of control

Nc1ccc(CCCCc2ccccc2)cc1Cl
inactive: dose: 100.0 mg/kg/injection, schedule: Q04DX003 (ip), vehicle: saline with Tween-80 100 % of control | dose: 200.0 mg/kg/injection, schedule: Q04DX003 (ip), vehicle: saline with Tween-80 100 % of control

OCC1OC2OC(c3ccccc3)(c3ccc(OCc4ccccc4)nc3OCc3ccccc3)OC2C1O (stereo unspecified)
inactive: dose: 100.0 mg/kg/injection, schedule: Q01DX001 (ip), vehicle: other 88 % of control | dose: 200.0 mg/kg/injection, schedule: Q01DX001 (ip), vehicle: other 90 % of control | dose: 400.0 mg/kg/injection, schedule: Q01DX001 (ip), vehicle: other 92 % of control

CC(C)(C)C#C/C(=N\Nc1ccc([N+](=O)[O-])cc1[N+](=O)[O-])c1ccccc1
inactive: dose: 50.0 mg/kg/injection, schedule: Q04DX002 (ip), vehicle: saline with Tween-80 89 % of control | dose: 100.0 mg/kg/injection, schedule: Q04DX002 (ip), vehicle: saline with Tween-80 96 % of control | dose: 400.0 mg/kg/injection, schedule: Q04DX002 (ip), vehicle: saline with Tween-80 86 % of control

Nc1cccc(S(=O)(=O)N(CCO)CCO)c1
inactive: dose: 100.0 mg/kg/injection, schedule: Q04DX003 (ip), vehicle: saline 90 % of control | dose: 200.0 mg/kg/injection, schedule: Q04DX003 (ip), vehicle: saline 95 % of control | dose: 400.0 mg/kg/injection, schedule: Q04DX003 (ip), vehicle: saline 94 % of control
